Ends that are not written are not given here.
Assays:
HCMV strain AD169 = assay: HCMV plaque formation assay in MRC-5 cells; conditions: for inhibition of HCMV plaque formation compared to the virus control: 10 micrograms per ml, 7-10 days
[1] = system: hepatitis B virus (HBV) ayw strain; assay: HBV assay in HepG2-2.2.15 cells (TaqMan PCR of secreted HBV DNA); assay type: cell-based; conditions: 10 micrograms per ml; HepG2-2.2.15, six days
[2] = system: Human Peripheral Blood Mononuclear Cells (PBMC), B cell proliferation; assay: B cell proliferation assay (SAC plus Interleukin-2 stimulated PBMC, 3H-thymidine); assay type: cell-based; conditions: 10 micrograms per ml
Experimental: Human Peripheral Blood Mononuclear Cells (PBMC) were obtained from normal human donors. The B cell proliferation was induced by stimulation of the cells with the B cell mitogen Staphylococcus aureus Cowans I (SAC) plus Interleukin-2, either in the absence (positive proliferation control), or in the presence of test peptides—10 micrograms per ml—to examine their effects on the B cell response. 10^5/well PBMC were plated in 96-well microtiter plates and assayed in duplicate with the peptides. […] At the end of incubation time, the plates were harvested and the cells counted by liquid scintillation for the incorporation of ^3H-thymidine as a measure of B cell proliferation.

Human A549 cells = assay: Apoptosis prevention assay (C2 ceramide, Annexin-5); assay type: cell-based; conditions: 10 micrograms per ml, A549, 30 min pretreatment
Experimental: Human A549 cells (carcinomic human alveolar basal epithelial cells) were utilized in the experiments employing the Annexin-5 apoptosis assay. […] A549 cells were pretreated for 30 min with test peptides—10 micrograms per ml—followed by the exposure to C2 ceramide.

[3] = system: Tumor Necrosis Factor-α (TNF-α) in spleen cells; assay: Th1/Th2 cytokine profiling assay: TNF-α; assay type: cell-based, Balb/c mice; conditions: 10 micrograms per ml; Ovalbumin-restimulated spleen cells, 72 hours
[4] = system: Interferon-γ (IFN-γ) in spleen cells; assay: Th1/Th2 cytokine profiling assay: IFN-γ; assay type: cell-based, Balb/c mice; conditions: 10 micrograms per ml; Ovalbumin-restimulated spleen cells, 72 hours
[5] = system: Interleukin-2 (IL-2) in spleen cells; assay: Th1/Th2 cytokine profiling assay: IL-2; assay type: cell-based, Balb/c mice; conditions: 10 micrograms per ml; Ovalbumin-restimulated spleen cells, 72 hours
[6] = system: Interleukin-4 (IL-4) in spleen cells; assay: Th1/Th2 cytokine profiling assay: IL-4; assay type: cell-based, Balb/c mice; conditions: 10 micrograms per ml; Ovalbumin-restimulated spleen cells, 72 hours
[7] = system: Interleukin-5 (IL-5) in spleen cells; assay: Th1/Th2 cytokine profiling assay: IL-5; assay type: cell-based, Balb/c mice; conditions: 10 micrograms per ml; Ovalbumin-restimulated spleen cells, 72 hours
Text: The Balb/c mice (originated in 1923, it is a popular strain and is used in many different research disciplines. Also classified as an inbred from the production of 20 or more successive brother-sister matings, the Balb/c mouse is albino and small in size) were immunized on Days 1, 15, and 29 with Ovalbumin (Ovalbumin is the main protein found in egg white, commonly used to stimulate an immunological reaction in test animals) in PBS (5 micrograms/injection). On day 50, spleens of the mice were harvested (3 weeks after last boost with Ovalbumin). Cells were cultured (2×10^5/well in triplicate) and incubated with culture medium or test peptides—10 micrograms per ml—for 30 min. Thereafter, additional Ovalbumin was added to the cells at 10 micrograms/ml for in vitro restimulation of the cells. 72 hours later, cell supernatants were harvested and assayed using the Becton Dickinson Mouse Th1/Th2 Cytokine CBA Kit. This kit can be used to measure Interleukin-2 (IL-2), Interleukin-4 (IL-4), Interleukin-5 (IL-5), Interferon-γ (IFN-γ), and Tumor Necrosis Factor-α (TNF-α) protein levels in a single sample. The kit performance has been optimized for analysis of physiologically relevant concentrations (μg/ml levels) of specific cytokine proteins in tissue culture supernatants and serum samples.

[8] = system: LPS-induced TNF-alpha production in human macrophages; assay: TNF alpha production assay (LPS-stimulated macrophages, ELISA); assay type: cell-based; conditions: 10 micrograms per ml; LPS 200 ng/ml, overnight
Text: Not stimulated macrophages served as negative background control.

HUVEC = assay: Endothelial tube formation assay; assay type: cell-based, human; conditions: 10 micrograms per ml, 20 hours
Text: Positive control was vehicle only.

[9] = system: Primary Human endothelial cells (HUVEC); assay: Endothelial cell migration assay; assay type: cell-based; conditions: 10 micrograms per ml, 22 hours
Experimental: Thereafter, designated concentration of testing peptides—10 micrograms per ml—was added in duplicate wells.

Row | Compound | antiviral activity of positive control compound (HCMV) (HCMV strain AD169; positive control) | inhibition of HBV replication on tested liver cells [1] | decrease of the proliferation of specifically stimulated human B-cells [2] | prevention (reduction) of the ceramide-induced apoptosis on human lung cells (Human A549 cells) | TNF-a spleen cells; TH1 response (% of control) [3] | IFNγ spleen cells; TH1 response (% of control) [4] | IL-2 spleen cells (% of control) [5] | IL-4 spleen cells; TH2 response (% of control) [6] | IL-5 spleen cells; TH2 response (% of control) [7] | inhibition of the LPS-induced TNF-alpha production in human macrophages [8] | inhibition of the tube formation of endothelial cells (HUVEC) | inhibition of HCMV plaque formation compared to the virus control (HCMV strain AD169) | inhibition of the migration of human endothelial cells [9]
1 | Nc1nc(O)c2ncn(COC(CO)CO)c2n1 [Ganciclovir, reference compound] | expected levels of antiviral activity | – | – | – | – | – | – | – | – | – | – | – | –
2 | Tyr-Gly-Gly-Phe-Met-OH [peptide 2] | – | no effect | 12.0% | 17.4% | 89.3 % of control | 64.9 % of control | 86.3 % of control | 100.4 % of control | 67.5 % of control | 28.4% | 25% | did not inhibit | –
3 | Asp-Phe-Asp-Met-Leu-Arg-Cys-Met-Leu-Gly-Arg-Val-Tyr-Arg-Pro-Cys-Trp-Gln-Val-OH (DFDMLRCMLGRVYRPCWQV-OH; ends and bridges not checked) [peptide 1] | – | no effect | 20.9% | did not show any reducing or increasing effect | 92.1 % of control | 90.4 % of control | 42.3 % of control | 85.9 % of control | 78.8 % of control | 20.6% | 19% | did not inhibit | 39%

Reference: US20100190717A1, “USE OF MELANIN CONCENTRATING HORMONE AND MET-ENKEPHALIN AS THERAPEUTIC AGENTS” (priority 2007, published 2010)
